Measurements taken from ChEMBL document CHEMBL1135839, “Design and synthesis of novel benzofurans as a new class of antifungal agents targeting fungal N-myristoyltransferase. Part 2” (Bioorg Med Chem Lett, 2002).

Assays:
[1] = Plasma concentration expressed as area under curve after intravenous administration was determined in rat; type: ADME, organism-based
[2] = Half life of compound determined after intravenous administration to rat; type: ADME, organism-based; conditions: in vivo
[3] = system: Candida albicans; assay: Antifungal activity expressed as inhibitory concentration against Candida albicans CY1002 in calf serum; type: functional, organism-based
[4] = target: T1, Peptide N-myristoyltransferase (Homo sapiens, UniProt P30419+O60551); assay: Inhibitory activity against human N-Myristoyltransferase (HsNmt) assessed as inhibitory concentration using substrate peptide and myristotyl-CoA at 0.5 uM; type: protein assay
T1 sequence (P30419 whole entry): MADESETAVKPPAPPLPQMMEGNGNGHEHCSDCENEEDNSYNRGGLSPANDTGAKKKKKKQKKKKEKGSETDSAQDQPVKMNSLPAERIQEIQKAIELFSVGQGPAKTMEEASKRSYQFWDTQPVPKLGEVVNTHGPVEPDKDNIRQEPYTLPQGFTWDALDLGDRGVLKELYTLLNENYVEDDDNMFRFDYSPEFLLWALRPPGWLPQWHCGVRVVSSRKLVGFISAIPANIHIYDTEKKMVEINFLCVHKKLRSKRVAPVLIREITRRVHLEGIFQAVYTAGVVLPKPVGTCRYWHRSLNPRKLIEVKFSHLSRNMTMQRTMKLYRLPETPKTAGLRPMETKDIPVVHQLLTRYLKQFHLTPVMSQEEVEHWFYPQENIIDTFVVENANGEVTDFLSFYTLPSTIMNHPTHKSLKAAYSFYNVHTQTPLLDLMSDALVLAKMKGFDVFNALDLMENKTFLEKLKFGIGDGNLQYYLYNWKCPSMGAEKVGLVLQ
T1 sequence (O60551 whole entry): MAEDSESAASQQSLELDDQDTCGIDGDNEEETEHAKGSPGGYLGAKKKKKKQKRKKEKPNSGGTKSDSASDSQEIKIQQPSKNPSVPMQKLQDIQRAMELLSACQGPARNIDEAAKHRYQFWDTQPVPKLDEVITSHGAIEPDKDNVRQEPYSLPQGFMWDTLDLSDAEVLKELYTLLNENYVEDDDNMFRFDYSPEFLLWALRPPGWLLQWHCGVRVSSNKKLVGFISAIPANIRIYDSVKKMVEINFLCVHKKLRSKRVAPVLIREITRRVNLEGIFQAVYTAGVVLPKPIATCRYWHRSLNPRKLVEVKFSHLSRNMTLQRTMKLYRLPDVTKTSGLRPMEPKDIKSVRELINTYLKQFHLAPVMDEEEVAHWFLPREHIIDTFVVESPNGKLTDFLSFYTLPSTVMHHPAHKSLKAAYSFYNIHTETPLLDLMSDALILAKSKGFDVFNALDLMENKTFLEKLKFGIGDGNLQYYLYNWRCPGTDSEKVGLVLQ

[5] = system: Candida albicans; assay: Antifungal activity expressed as inhibitory concentration against Candida albicans CY1002 in YNBPB medium; type: functional, organism-based
[6] = target: Candida albicans N-myristoyltransferase (Candida albicans); assay: Inhibitory activity against Candida albicans N-Myristoyltransferase (CaNmt) assessed as inhibitory concentration using substrate peptide and myristotyl-CoA at 0.5 uM
[7] = target: Candida albicans N-myristoyltransferase (Candida albicans); assay: Inhibitory activity against Candida albicans N-Myristoyltransferase (Nmt)
[8] = target: Candida albicans N-myristoyltransferase (Candida albicans); assay: Inhibitory activity against Candida albicans (Nmt) assessed as inhibitory concentration (nM)
[9] = system: Rattus norvegicus; assay: Effective dose required against Candida albicans for 50% survival on intravenous administration in rats; type: functional
[10] = target: Candida albicans N-myristoyltransferase (Candida albicans); assay: Inhibitory activity against Candida albicans (Nmt) assessed as inhibitory concentration
[11] = system: Candida albicans; assay: Antifungal activity expressed as inhibitory concentration against Candida albicans in calf serum; type: functional, organism-based

| Structure (SMILES) | AUC [1] [ng·h/mL] | half-life [2] [h] | IC50 [3] [µM] | IC50 [4] [µM] | IC50 [5] [µM] | IC50 [6] [µM] | IC50 [7] [µM] | IC50 [8] [µM] | ED50 [9] [mg/kg] | IC50 [10] [µM] | IC50 [11] [µM] |
| --- | --- | --- | --- | --- | --- | --- | --- | --- | --- | --- | --- |
| Cc1c(COc2cccc(F)c2)oc2cccc(OCCCNCc3cccnc3)c12 | 370 | 1.5 | 3.3 | > 110 | 0.11 | 0.11 | – | – | – | – | – |
| Cc1c(C(=O)Nc2ccccc2)oc2cccc(OCCCNCc3cccnc3)c12 | 240 | 0.9 | – | > 480 | 12 | 2.2 | – | – | – | – | – |
| Cc1c(COc2cccc(F)c2F)oc2cccc(OCCCNCc3cccnc3)c12 | 500 | 1.9 | 0.57 | – | 0.08 | – | – | – | – | – | – |
| Cc1c(COc2ccc(C#N)cc2)oc2cccc(OCCCNCc3cccnc3)c12 | 340 | 1.2 | 1.4 | > 460 | 0.16 | 0.0094 | 0.0094 | – | – | – | – |
| Cc1c(COc2ccc(F)cc2)oc2cccc(OCCCNCc3cccnc3)c12 | 340 | 1.9 | 0.7 | 67 | 0.021 | 0.0052 | – | 0.0052 | – | – | – |
| Cc1c(COc2ccc(Br)cc2F)oc2cccc(OCCCNCc3cccnc3)c12 | 360 | 3.6 | 1.3 | > 400 | 0.074 | 0.028 | – | – | > 30 | – | – |
| CCOC(=O)c1oc2cccc(OCCCNCc3cccnc3)c2c1C | 330 | 0.4 | – | > 450 | – | – | – | – | – | – | – |
| Cc1c(CCc2ccccc2)oc2cccc(OCCCNCc3cccnc3)c12 | 290 | 1.1 | > 240 | 12 | 13 | 1.2 | – | – | – | – | – |
| Cc1c(COc2ccc(F)cc2F)oc2cccc(OCCCNCc3cccnc3)c12 | 420 | 1.6 | 0.34 | > 450 | 0.03 | 0.0075 | – | 0.0075 | 7.1 | – | – |
| Cc1c(COc2ccccc2)oc2cccc(OCCCNCc3cccnc3)c12 | 670 | 1.9 | – | 77 | 0.37 | 0.072 | – | – | – | – | – |
| Cc1c(COc2ccc(F)c(F)c2F)oc2cccc(OCCCNCc3cccnc3)c12 | 330 | 2 | 0.33 | – | 0.035 | – | – | – | 7.1 | – | – |
| Cc1c(COc2ccccc2F)oc2cccc(OCCCNCc3cccnc3)c12 | 560 | 1.6 | 0.6 | > 470 | 0.04 | 0.0083 | – | – | – | 0.0083 | – |
| Cc1c(COc2ccccc2C#N)oc2cccc(OCCCNCc3cccnc3)c12 | 280 | 0.5 | 3.3 | 19 | 1.2 | 0.017 | – | – | – | – | – |
| Cc1c(COc2ccc(Cl)cc2)oc2cccc(OCCCNCc3cccnc3)c12 | 330 | 2.4 | 6.6 | > 110 | 0.92 | 0.073 | – | – | – | – | – |
| Cc1c(CSc2ccccc2)oc2cccc(OCCCNCc3cccnc3)c12 | 390 | 1.4 | 180 | – | 11 | – | – | – | – | – | – |
| OC(Cn1cncn1)(Cn1cncn1)c1ccc(F)cc1F [FLUCONAZOLE] | 19.6 | 4 | 0.5 | – | – | – | – | – | – | – | 0.5 |
